Results as given in US9884863B2, “STAT3 inhibitor” (Board of Regents, The University of Texas System, priority 2013, dated 2018).
Read-outs that look alike come from different tables or passages of the source.

Tests used:
Panc-1 = assay: MTS cell proliferation assay, Panc-1; format: cell-based, human
Experimental: (§1) Cancer cells (breast cancer cell lines MCF-7, MDA-MB-361, SKBR3 and MDA-MB-231, pancreatic cancer cell lines AsPC-1. BxPC3 and Panc-1) were seeded in 96-well plates at a density of 1000-2000 cells/well and treated with DMSO, 0.01, 0.1, 1, 5, 10, and […] of STAT3 individual inhibitors for 72 hrs. Proliferation was measured by treating cells with the 3-(4,5-dimethylthiazol-2-yl)-5-(3-carboxymethoxyphenyl)-2-(4-sulfophenyl)-2H-tetrazolium) (MTS) in a CellTiter 96t AQueous Non-Radioactive Cell Proliferation Assay kit from Promega, Madison, Wis., USA). Absorbance of all wells was determined by measuring OD at 550 nm after 1 hr incubation at 37° C. on a 96-well iMark™ Microplate Absorbance Reader (BioRad, Hercules, Calif.). Each individual compound was tested in quadruplicate wells for each concentration, and the results were reported as mean absorption±s.e.
(§2) In Vitro Determination of Effects of Synthesized Compounds on Cancer Cell Proliferation. Cancer cells (breast cancer cell lines MCF-7 and MDA-MB-231, pancreatic cancer cell lines AsPC-1 and Panc-1) were seeded in 96-well plates at a density of 2×10^3 cells/well and treated with DMSO, 0.01, 0.1, 1, 5, 10, and 100 μM of individual STAT3 inhibitors for 72 h. Proliferation was measured by treating cells with the 3-(4,5-dimethylthiazol-2-yl)-5-(3-carboxymethoxyphenyl)-2-(4-sulfophenyl)-2H-tetrazolium) (MTS) in a CellTiter 96t Aqueous Non-Radioactive Cell Proliferation Assay kit (Promega, Madison, Wis., USA). Absorbance of all wells was determined by measuring OD at 550 nm after 1 h incubation at 37° C. on a 96-well iMark™ Microplate Absorbance Reader (BioRad, Hercules, Calif.). Each individual compound was tested in quadruplicate wells for each concentration.

MDA-MB-231 = assay: MTS cell proliferation assay, MDA-MB-231; format: cell-based, human
Method in brief: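 Cells are exposed to DMSO or STAT3 inhibitors at 0.01-100 μM for 72 h, or at 1, 5 and 10 μM. Proliferation is read by MTS absorbance at 550 or 560 nm after 1 h at 37 °C. Each concentration is run in quadruplicate wells.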

MCF-7 = assay: MTS cell proliferation assay, MCF-7; format: cell-based, human
Method in brief: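 MCF-7 human breast cancer cells were exposed to test compounds at a range of concentrations, then proliferation was measured with the MTS reagent from Promega's CellTiter 96 AQueous Non-Radioactive Cell Proliferation Assay kit. After 1 hr at 37° C., OD at 550 nm was read on a 96-well iMark Microplate Absorbance Reader, with quadruplicate wells per concentration.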

BxPc-3H = assay: MTS cell proliferation assay, BxPc-3H; format: cell-based; details: Homo sapiens; pancreatic cancer, 72 hrs; >10 = no effect; read-out: IC50 BxPc-3H (Table 1)
Experimental: as §1

SKBR3 = assay: MTS cell proliferation assay, SKBR3; format: cell-based; details: Homo sapiens, SK-BR-3; ER-negative breast cancer, 72 hrs; >10 = no effect; read-out: IC50 SKBR3 (Table 1)
Experimental: as §1

MDA-MB-361 = assay: MTS cell proliferation assay, MDA-MB-361; format: cell-based; details: Homo sapiens, ER-positive breast cancer, 72 hrs, >10 = no effect, read-out: IC50 MDA-MB-361 (Table 1)
Experimental: as §1

AsPC1 = assay: MTS cell proliferation assay, AsPC1; format: cell-based, human
Experimental: as §1, §2

[1] = tested on: MCF-7, MDA-MB-231, AsPC1 and Panc-1; assay: MTS proliferation assays, breast and pancreatic cancer cell line panel; format: cell-based, human; details: Example 4 numbering
Experimental: as §2

[2] = tested on: MDA-MB-231 xenograft tumors; assay: MDA-MB-231 xenograft tumor growth in nude mice; format: in vivo; details: i.p., 2.5, 7.5 and 12.5 mg/kg
[3] = Homo sapiens, PANC-1, pancreatic cancer, 72 hrs, >10 = no effect, read-out: IC50 Panc-1 (Table 1)
[4] = Homo sapiens, MDA-MB-231, ER-negative breast cancer, 72 hrs, >10 = no effect, read-out: IC50 MDA-MB-231 (Table 1)
[5] = Homo sapiens, MCF7, 72 h; read-out: IC50 MCF-7 (Table 1)
[6] = MCF-7, 48 hr, μM concentrations
[7] = Homo sapiens, ASPC1, pancreatic cancer, 72 hrs, >10 = no effect, read-out: IC50 AsPC1 (Table 1)
[8] = Homo sapiens, PANC-1, 72 h, read-out: IC50 Panc-1 (Table 1)
[9] = Homo sapiens, MDA-MB-231, 72 h, read-out: IC50 MDA-MB-231 (Table 1)
[10] = Homo sapiens, MCF7, 72 h, read-out: IC50 MCF-7 (Table 1)
[11] = Homo sapiens, ASPC1, 72 h, read-out: IC50 AsPC1 (Table 1)

| IC50 (Panc-1; [3]) | IC50 (MDA-MB-231; [4]) | IC50 (MCF-7; [5]) | IC50 (BxPc-3H) | IC50 (SKBR3) | IC50 (MDA-MB-361) | IC50 (AsPC1; [7]) | Molecule | inhibition on breast cancer cell proliferation (FIG. 1) (MCF-7; [6]) | also measured |
| --- | --- | --- | --- | --- | --- | --- | --- | --- | --- |
| 0.31 µM | 0.45 µM | 0.65 µM | 0.27 µM | 0.2 µM | 0.23 µM | 0.12 µM | O=C(Nc1ccc2c(c1)S(=O)(=O)C=C2)c1cc(-c2ccccc2)nc(-c2ccccc2)c1 [HJC-1-36, N-(1,1-Dioxo-1H-1λ^6-benzo[b]thiophen-6-yl)-2,6-diphenyl-isonicotinamide] | significant inhibition | – |
| – | – | – | – | – | – | – | Quinoline-3-carboxylic acid (1,1-dioxo-1H-1λ^6-benzo[b]thiophen-6-yl)amide [Compound 23] | – | IC50 (Panc-1; Example 4 numbering, 72 h, >10 = no effect, read-out: IC50 Panc-1 (Table 5)): 7.92 µM; antiproliferative activity in words (Example 4) [1]: moderate to low antiproliferative activity; IC50 (MDA-MB-231; Example 4 numbering, 72 h, >10 = no effect, read-out: IC50 MDA-MB-231 (Table 5)): 6.21 µM; IC50 (MCF-7; Example 4 numbering, 72 h; >10 = no effect; read-out: IC50 MCF-7 (Table 5)): 2.97 µM; IC50 (AsPC1; Example 4 numbering, 72 h, >10 = no effect, read-out: IC50 AsPC1 (Table 5)): 6.97 µM |
| 1.08 µM | 1.64 µM | 0.91 µM | 1.07 µM | – | 2.37 µM | 1.9 µM | NCCOc1ccc(Cl)cc1C(=O)Nc1ccc([N+](=O)[O-])cc1Cl [HJC-1-52, 2-(2-Aminoethoxy)-5-chloro-N-(2-chloro-4-nitrophenyl)benzamide] | significant inhibition | growth of xenograft tumors (FIG. 3) [2]: significantly suppresses tumor growth |
| 8.44 µM | 8.88 µM | 0.9 µM | 7.26 µM | 6.51 µM | 6.39 µM | 7.54 µM | C[C@H](NC(=O)c1cc(Cl)ccc1O)c1ccccc1 [HJC-1-30, 5-Chloro-2-hydroxy-N-(1-phenyl-ethyl)benzamide] | significant inhibition | – |
| > 10 µM | 66.3 µM | > 10 µM | > 10 µM | 11.2 µM | 22.8 µM | 37.6 µM | CC(=O)Nc1ccc(NC(=O)c2cc(Cl)ccc2O)c(Cl)c1 [HJC-1-40, N-(4-Acetylamino-2-chlorophenyl)-5-chloro-2-hydroxybenzamide] | – | – |
| > 10 µM | > 10 µM | > 10 µM | 200 µM | 42.4 µM | > 10 µM | > 10 µM | O=C(Nc1nnc(-c2ccco2)o1)c1cc(Cl)ccc1O [HJC-1-51, 5-Chloro-N-(5-furan-2-yl-[1,3,4]oxadiazol-2-yl)-2-hydroxybenzamide] | – | – |
| 2.34 µM | 1.64 µM | 0.91 µM | 1.16 µM | 0.72 µM | 2.37 µM | 1.92 µM | O=C(Nc1ccc2c(c1)S(=O)(=O)C=C2)c1cc(Cl)ccc1O [HJC-1-49, 5-Chloro-N-(1,1-dioxo-1H-1λ^6-benzo[b]thiophen-6-yl)-2-hydroxybenzamide] | significant inhibition | – |
| 15.4 µM | 86 µM | 2.24 µM | 16.4 µM | 45.9 µM | 132 µM | > 10 µM | C[C@H](NC(=O)c1cc(-c2ccccc2)nc2ccccc12)c1ccccc1 [HJC-1-28, 2-Phenyl-quinoline-4-carboxylic acid (1-phenyl-ethyl)amide] | – | – |
| > 10 µM | > 10 µM | > 10 µM | > 10 µM | 16.1 µM | 14.9 µM | > 10 µM | Nc1ccc(NC(=O)c2cc(Cl)ccc2O)c(Cl)c1 [HJC-1-29, N-(4-Amino-2-chloro-phenyl)-5-chloro-2-hydroxy-benzamide] | – | – |
| 0.54 µM | 0.29 µM | 0.25 µM | 0.27 µM | 0.28 µM | 0.18 µM | 2.76 µM | O=C(Nc1ccc([N+](=O)[O-])cc1Cl)c1cc(Cl)ccc1OC1CCNCC1 [HJC-1-25, 5-Chloro-N-(2-chloro-4-nitro-phenyl)-2-(piperidin-4-yloxy)benzamide] | significant inhibition | – |
| 27.9 µM | > 10 µM | 11.7 µM | 13.2 µM | 9.14 µM | 9.23 µM | 11.6 µM | CC(=O)Nc1ccc(NC(=O)c2cc(Cl)ccc2OC(C)=O)c(Cl)c1 [HJC-1-37, Acetic acid 2-(4-acetylamino-2-chloro-phenylcarbamoyl)-4-chlorophenyl ester] | – | – |
| – | – | – | – | – | – | – | O=C(Nc1ccc2c(c1)S(=O)(=O)C=C2)c1ccncc1 [Compound 21, N-(1,1-Dioxo-1H-1λ^6-benzo[b]thiophen-6-yl)isonicotinamide] | – | antiproliferative activity in words (Example 4) [1]: moderate to low antiproliferative activity; IC50 (MDA-MB-231; Homo sapiens, MDA-MB-231, Example 4 numbering, 72 h, >10 = no effect, read-out: IC50 MDA-MB-231 (Table 5)): > 10 µM; IC50 (MCF-7; Homo sapiens, MCF7; Example 4 numbering, 72 h; >10 = no effect; read-out: IC50 MCF-7 (Table 5)): > 10 µM; melting point: 251 to 252 °C |
| 0.84 µM | > 10 µM | > 10 µM | > 10 µM | > 10 µM | 43 µM | > 10 µM | CS(=O)(=O)Nc1ccc(NC(=O)c2cc(Cl)ccc2O)c(Cl)c1 [HJC-1-31, 5-Chloro-N-(2-chloro-4-methanesulfonylamino-phenyl)-2-hydroxybenzamide] | – | – |

| Molecule | IC50 (Panc-1; [3]) | IC50 (MDA-MB-231; [4]) | IC50 (MCF-7; [5]) | IC50 (BxPc-3H) | IC50 (SKBR3) | IC50 (MDA-MB-361) | IC50 (AsPC1; [7]) | inhibition on breast cancer cell proliferation (FIG. 1) (MCF-7; [6]) | also measured |
| --- | --- | --- | --- | --- | --- | --- | --- | --- | --- |
| O=C(Nc1ccc2c(c1)S(=O)(=O)C=C2)c1c2ccccc2nc2ccccc12 [HJC-1-41, Acridine-9-carboxylic acid (1,1-dioxo-1H-1λ^6-benzo[b]thiophen-6-yl)amide] | – | – | – | > 10 µM | > 10 µM | 170 µM | – | – | IC50 (Panc-1; [8]): > 10 µM; IC50 (MDA-MB-231; [9]): > 10 µM; IC50 (MCF-7; [10]): > 10 µM; IC50 (AsPC1; [11]): > 10 µM |
| O=C(Nc1ccc([N+](=O)[O-])cc1Cl)c1cc(Cl)ccc1OCCN1CCOCC1 [HJC-1-14, 5-Chloro-N-(2-chloro-4-nitro-phenyl)-2-(2-morpholin-4-yl-ethoxy)benzamide] | – | – | – | > 10 µM | 5.1 µM | 12.6 µM | – | – | IC50 (Panc-1; [8]): > 10 µM; IC50 (MDA-MB-231; [9]): 17.9 µM; IC50 (MCF-7; [10]): 9.87 µM; IC50 (AsPC1; [11]): 73.2 µM |
| O=C(Nc1ccc([N+](=O)[O-])cc1Cl)c1cc(-c2ccccc2)nc2ccccc12 [HJC-1-17, 2-Phenyl-quinoline-4-carboxylic acid (2-chloro-4-nitro-phenyl)amide] | – | – | – | > 10 µM | > 10 µM | 17.4 µM | – | – | IC50 (Panc-1; [8]): > 10 µM; IC50 (MDA-MB-231; [9]): > 10 µM; IC50 (MCF-7; [10]): 15.9 µM; IC50 (AsPC1; [11]): > 10 µM |
| O=C(Nc1ccc2c(c1)S(=O)(=O)C=C2)c1cc(-c2ccccc2)nc2ccccc12 [HJC-1-23, 2-Phenyl-quinoline-4-carboxylic acid (1,1-dioxo-1H-1λ^6-benzo[b]thiophen-6-yl)-amide] | – | – | – | 0.2 µM | 0.22 µM | 0.24 µM | – | significant inhibition | IC50 (Panc-1; [8]): 0.26 µM; IC50 (MDA-MB-231; [9]): 0.29 µM; IC50 (MCF-7; [10]): 0.1 µM; IC50 (AsPC1; [11]): 1.25 µM |
